Laboratory results taken from patent US20250213542A1, “DEVICES AND METHODS FOR DELIVERING SYNERGISTIC ACTIVE AGENTS TO TARGET SITES” (IRRIMAX Corporation, priority 2023, published 2025).
Structures can show the parent of a compound that is named as a salt. Where two headings read alike, the source gives them in different places.

Experiments:
Type in all cases: cell-based
S. aureus = assay: Chequerboard assay, FIC and synergy analysis; conditions: Staphylococcus aureus
Procedure: (§1) Chlorhexidine gluconate (CHG) and octenidine dihydrochloride (OCT) were analyzed by chequerboard assay with each test organism to determine potential additive, synergistic, and antagonistic activity. The test organisms S. aureus, P. aeruginosa, and E. coli were tested at ranges of chlorhexidine gluconate (0.122-15.625 μg/ml, 1.25-160 μg/ml, and 0.125-16 μg/ml, respectively) and octenidine dihydrochloride (0.029-3.75 μg/mL, 0.029-3.75 μg/mL, and 0.029-3.75 μg/mL, respectively). FIC was calculated by the following Equation 2: […]

E. coli = assay: Chequerboard assay, FIC and synergy analysis; conditions: Escherichia coli
Procedure: as §1

P. aeruginosa = assay: Chequerboard assay, FIC and synergy analysis; conditions: Pseudomonas aeruginosa, P. aeruginosa, chequerboard
Procedure: as §1

[1] = system: P. aeruginosa (ATCC 15442); assay: Minimal bactericidal concentration determination, serial 2-fold dilution; conditions: for Number of Colonies: average of triplicate
Procedure: (§2) The minimal bactericidal concentration (MBC) of octenidine dihydrochloride was determined against S. aureus (ATCC 6538), P. aeruginosa (ATCC 15442), and E. coli (ATCC BAA 1427) by serial 2-fold dilution experiments. A solution of chlorhexidine (0.025% w/w) was used as a positive control and comparator.

E. coli (ATCC BAA 1427) [2] = assay: as above; conditions: E. coli (ATCC BAA 1427); for Number of Colonies: average of triplicate
Procedure: as §2

S. aureus (ATCC 6538) [3] = assay: as above; conditions: for Number of Colonies: average of triplicate
Procedure: as §2

[4] = system: P. aeruginosa (ATCC 15442); assay: Minimum inhibitory concentration determination, serial 2-fold dilution; conditions: Pseudomonas aeruginosa, ATCC15442, P. aeruginosa (ATCC 15442)
Procedure: (§3) The minimal inhibitory concentration (MIC, the minimum inhibitory concentration required for 90% growth reduction) of octenidine was determined against S. aureus (ATCC 6538), P. aeruginosa (ATCC 15442), and E. coli (ATCC BAA 1427) by serial 2-fold dilution experiments. A solution of chlorhexidine (0.025% w/w) was used as a positive control and comparator.

E. coli (ATCC BAA 1427) [5] = assay: as above; conditions: Escherichia coli
Procedure: as §3

S. aureus (ATCC 6538) [6] = assay: as above; conditions: Staphylococcus aureus, ATCC6538, S. aureus (ATCC 6538)
Procedure: as §3

[7] = in presence of CHG, read-out: MIC of OCT in Presence of CHG
[8] = 0.46875 μg/mL, read-out: Average Growth Inhibition (%)
[9] = 0.9375 μg/mL, read-out: Average Growth Inhibition (%)
[10] = 1.875 μg/mL, read-out: Average Growth Inhibition (%)
[11] = 3.75 μg/mL, read-out: Average Growth Inhibition (%)
[12] = 7.5 μg/mL, read-out: Average Growth Inhibition (%)
[13] = 15 μg/mL, read-out: Average Growth Inhibition (%)
[14] = 30 μg/mL, read-out: Average Growth Inhibition (%)
[15] = 60 μg/mL, read-out: Average Growth Inhibition (%)
[16] = read-out: MIC (inhibited greater than 90% growth)

For `CCCCCCCCN=c1ccn(CCCCCCCCCCn2ccc(=NCCCCCCCC)cc2)cc1` [Octenidine dihydrochloride, 1-Octanamine, N,N′-(1,10-decanediyldi-1(4H)-pyridinyl-4-ylidene)bis-], the MIC (S. aureus; [7]) was 0.234 µg/mL, the MIC (S. aureus; read-out: MIC of OCT Alone) was 0.938 µg/mL and the MIC (E. coli; [7]) was 0.029 µg/mL. The MIC (E. coli; read-out: MIC of OCT Alone) was 1.88 µg/mL, the MIC (P. aeruginosa; [7]) was 0.938 µg/mL and the MIC (P. aeruginosa; read-out: MIC of OCT Alone) was 1.88 µg/mL. For the same compound, the CFU/mL ([1]; 0.46875 μg/mL) was “Lawn (‘Lawn’indicates too many colonies to accurately count (e.g., greater than 250 colonies on an agar plate))”, the “Number of Colonies” value ([1]; 0.46875 μg/mL) was “Lawn (‘Lawn’indicates too many colonies to accurately count (e.g., greater than 250 colonies on an agar plate))” and the CFU/mL ([1]; 0.9375 μg/mL) was “Lawn (‘Lawn’indicates too many colonies to accurately count (e.g., greater than 250 colonies on an agar plate))”. The “Number of Colonies” value ([1]; 0.9375 μg/mL) was “Lawn (‘Lawn’indicates too many colonies to accurately count (e.g., greater than 250 colonies on an agar plate))”, the CFU/mL ([1]; 1.875 μg/mL) was 966.67 CFU/mL and the “Number of Colonies” value ([1]; 1.875 μg/mL) was 9.667. The CFU/mL ([1]; 3.75 μg/mL) was 0 CFU/mL, the “Number of Colonies” value ([1]; 3.75 μg/mL) was 0 and the CFU/mL ([1]; 7.5 μg/mL) was 0 CFU/mL. For the same compound, the “Number of Colonies” value ([1]; 7.5 μg/mL) was 0, the CFU/mL ([1]; 15 μg/mL) was 0 CFU/mL and the “Number of Colonies” value ([1]; 15 μg/mL) was 0. For the same compound, the CFU/mL ([1]; 30 μg/mL) was 0 CFU/mL, the “Number of Colonies” value ([1]; 30 μg/mL) was 0 and the CFU/mL ([1]; 60 μg/mL) was 0 CFU/mL. The “Number of Colonies” value ([1]; 60 μg/mL) was 0, the MBC ([1]; Pseudomonas aeruginosa, ATCC15442, read-out: MBC (concentration having less than 500 CFU/mL)) was 3.75 µg/mL and the CFU/mL (E. coli (ATCC BAA 1427) [2]; 0.46875 μg/mL) was “Lawn (‘Lawn’indicates too many colonies to accurately count (e.g., greater than 250 colonies on an agar plate))”. For the same compound, the “Number of Colonies” value (E. coli (ATCC BAA 1427) [2]; 0.46875 μg/mL) was “Lawn (‘Lawn’indicates too many colonies to accurately count (e.g., greater than 250 colonies on an agar plate))”, the CFU/mL (E. coli (ATCC BAA 1427) [2]; 0.9375 μg/mL) was “Lawn (‘Lawn’indicates too many colonies to accurately count (e.g., greater than 250 colonies on an agar plate))” and the “Number of Colonies” value (E. coli (ATCC BAA 1427) [2]; 0.9375 μg/mL) was “Lawn (‘Lawn’indicates too many colonies to accurately count (e.g., greater than 250 colonies on an agar plate))”. For the same compound, the CFU/mL (E. coli (ATCC BAA 1427) [2]; 1.875 μg/mL) was 0 CFU/mL, the “Number of Colonies” value (E. coli (ATCC BAA 1427) [2]; 1.875 μg/mL) was 0 and the CFU/mL (E. coli (ATCC BAA 1427) [2]; 3.75 μg/mL) was 0 CFU/mL. The “Number of Colonies” value (E. coli (ATCC BAA 1427) [2]; 3.75 μg/mL) was 0, the CFU/mL (E. coli (ATCC BAA 1427) [2]; 7.5 μg/mL) was 0 CFU/mL and the “Number of Colonies” value (E. coli (ATCC BAA 1427) [2]; 7.5 μg/mL) was 0. The CFU/mL (E. coli (ATCC BAA 1427) [2]; 15 μg/mL) was 0 CFU/mL, the “Number of Colonies” value (E. coli (ATCC BAA 1427) [2]; 15 μg/mL) was 0 and the CFU/mL (E. coli (ATCC BAA 1427) [2]; 30 μg/mL) was 0 CFU/mL. The “Number of Colonies” value (E. coli (ATCC BAA 1427) [2]; 30 μg/mL) was 0, the CFU/mL (E. coli (ATCC BAA 1427) [2]; 60 μg/mL) was 0 CFU/mL and the “Number of Colonies” value (E. coli (ATCC BAA 1427) [2]; 60 μg/mL) was 0. For the same compound, the MBC (E. coli (ATCC BAA 1427) [2]; Escherichia coli, BAA1427, read-out: MBC (concentration having less than 500 CFU/mL)) was 1.88 µg/mL, the CFU/mL (S. aureus (ATCC 6538) [3]; 0.46875 μg/mL) was “Lawn (‘Lawn’indicates too many colonies to accurately count (e.g., greater than 250 colonies on an agar plate))” and the “Number of Colonies” value (S. aureus (ATCC 6538) [3]; 0.46875 μg/mL) was “Lawn (‘Lawn’indicates too many colonies to accurately count (e.g., greater than 250 colonies on an agar plate))”. The CFU/mL (S. aureus (ATCC 6538) [3]; 0.9375 μg/mL) was 0 CFU/mL, the “Number of Colonies” value (S. aureus (ATCC 6538) [3]; 0.9375 μg/mL) was 0 and the CFU/mL (S. aureus (ATCC 6538) [3]; 1.875 μg/mL) was 0 CFU/mL. For the same compound, the “Number of Colonies” value (S. aureus (ATCC 6538) [3]; 1.875 μg/mL) was 0, the CFU/mL (S. aureus (ATCC 6538) [3]; 3.75 μg/mL) was 566.67 CFU/mL and the “Number of Colonies” value (S. aureus (ATCC 6538) [3]; 3.75 μg/mL) was 5.6667. The CFU/mL (S. aureus (ATCC 6538) [3]; 7.5 μg/mL) was 0 CFU/mL, the “Number of Colonies” value (S. aureus (ATCC 6538) [3]; 7.5 μg/mL) was 0 and the CFU/mL (S. aureus (ATCC 6538) [3]; 15 μg/mL) was 0 CFU/mL. The “Number of Colonies” value (S. aureus (ATCC 6538) [3]; 15 μg/mL) was 0, the CFU/mL (S. aureus (ATCC 6538) [3]; 30 μg/mL) was 0 CFU/mL and the “Number of Colonies” value (S. aureus (ATCC 6538) [3]; 30 μg/mL) was 0. The CFU/mL (S. aureus (ATCC 6538) [3]; 60 μg/mL) was 0 CFU/mL, the “Number of Colonies” value (S. aureus (ATCC 6538) [3]; 60 μg/mL) was 0 and the MBC (S. aureus (ATCC 6538) [3]; Staphylococcus aureus, ATCC6538, read-out: MBC (concentration having less than 500 CFU/mL)) was 0.938 µg/mL. For the same compound, the inhibition at 0.46875 µg/mL [4, 8] was 2%, the inhibition at 0.9375 µg/mL [4, 9] was 4% and the inhibition at 1.875 µg/mL [4, 10] was 100%. For the same compound, the inhibition at 3.75 µg/mL [4, 11] was 100%, the inhibition at 7.5 µg/mL [4, 12] was 100% and the inhibition at 15 µg/mL [4, 13] was 99%. For the same compound, the inhibition at 30 µg/mL [4, 14] was 97%, the inhibition at 60 µg/mL [4, 15] was 91% and the MIC [4, 16] was 1.88 µg/mL. The inhibition at 0.46875 µg/mL (E. coli (ATCC BAA 1427) [5]; BAA1427, 0.46875 μg/mL, read-out: Average Growth Inhibition (%)) was 6%, the inhibition at 0.9375 µg/mL (E. coli (ATCC BAA 1427) [5]; BAA1427, 0.9375 μg/mL, read-out: Average Growth Inhibition (%)) was 12% and the inhibition at 1.875 µg/mL (E. coli (ATCC BAA 1427) [5]; BAA1427, 1.875 μg/mL, read-out: Average Growth Inhibition (%)) was 100%. It also gave an inhibition at 3.75 µg/mL (E. coli (ATCC BAA 1427) [5]; BAA1427, 3.75 μg/mL, read-out: Average Growth Inhibition (%)) of 100%, an inhibition at 7.5 µg/mL (E. coli (ATCC BAA 1427) [5]; BAA1427, 7.5 μg/mL, read-out: Average Growth Inhibition (%)) of 100% and an inhibition at 15 µg/mL (E. coli (ATCC BAA 1427) [5]; BAA1427, 15 μg/mL, read-out: Average Growth Inhibition (%)) of 99%. For the same compound, the inhibition at 30 µg/mL (E. coli (ATCC BAA 1427) [5]; BAA1427, 30 μg/mL, read-out: Average Growth Inhibition (%)) was 97%, the inhibition at 60 µg/mL (E. coli (ATCC BAA 1427) [5]; BAA1427, 60 μg/mL, read-out: Average Growth Inhibition (%)) was 91% and the MIC (E. coli (ATCC BAA 1427) [5]; BAA1427, read-out: MIC (inhibited greater than 90% growth)) was 1.88 µg/mL. The inhibition at 0.46875 µg/mL (S. aureus (ATCC 6538) [6]; [8]) was 50%, the inhibition at 0.9375 µg/mL (S. aureus (ATCC 6538) [6]; [9]) was 101% and the inhibition at 1.875 µg/mL (S. aureus (ATCC 6538) [6]; [10]) was 101%. It also gave an inhibition at 3.75 µg/mL (S. aureus (ATCC 6538) [6]; [11]) of 101%, an inhibition at 7.5 µg/mL (S. aureus (ATCC 6538) [6]; [12]) of 98% and an inhibition at 15 µg/mL (S. aureus (ATCC 6538) [6]; [13]) of 97%. The inhibition at 30 µg/mL (S. aureus (ATCC 6538) [6]; [14]) was 92%, the inhibition at 60 µg/mL (S. aureus (ATCC 6538) [6]; [15]) was 73% and the MIC (S. aureus (ATCC 6538) [6]; [16]) was 0.938 µg/mL.
